Reference: ChEMBL document CHEMBL4334513, “Discovery of a Potent, Selective, and Orally Available MTHFD2 Inhibitor (DS18561882) with in Vivo Antitumor Activity” (J Med Chem, 2019)
≈ marks a conversion by molar mass, not a printed value. Each block holds one compound with its values, some of them ahead of it.

How the values were obtained:
[1] = target: T1, C-1-tetrahydrofolate synthase, cytoplasmic (Homo sapiens, UniProt P11586)
T1 sequence (P11586 whole entry): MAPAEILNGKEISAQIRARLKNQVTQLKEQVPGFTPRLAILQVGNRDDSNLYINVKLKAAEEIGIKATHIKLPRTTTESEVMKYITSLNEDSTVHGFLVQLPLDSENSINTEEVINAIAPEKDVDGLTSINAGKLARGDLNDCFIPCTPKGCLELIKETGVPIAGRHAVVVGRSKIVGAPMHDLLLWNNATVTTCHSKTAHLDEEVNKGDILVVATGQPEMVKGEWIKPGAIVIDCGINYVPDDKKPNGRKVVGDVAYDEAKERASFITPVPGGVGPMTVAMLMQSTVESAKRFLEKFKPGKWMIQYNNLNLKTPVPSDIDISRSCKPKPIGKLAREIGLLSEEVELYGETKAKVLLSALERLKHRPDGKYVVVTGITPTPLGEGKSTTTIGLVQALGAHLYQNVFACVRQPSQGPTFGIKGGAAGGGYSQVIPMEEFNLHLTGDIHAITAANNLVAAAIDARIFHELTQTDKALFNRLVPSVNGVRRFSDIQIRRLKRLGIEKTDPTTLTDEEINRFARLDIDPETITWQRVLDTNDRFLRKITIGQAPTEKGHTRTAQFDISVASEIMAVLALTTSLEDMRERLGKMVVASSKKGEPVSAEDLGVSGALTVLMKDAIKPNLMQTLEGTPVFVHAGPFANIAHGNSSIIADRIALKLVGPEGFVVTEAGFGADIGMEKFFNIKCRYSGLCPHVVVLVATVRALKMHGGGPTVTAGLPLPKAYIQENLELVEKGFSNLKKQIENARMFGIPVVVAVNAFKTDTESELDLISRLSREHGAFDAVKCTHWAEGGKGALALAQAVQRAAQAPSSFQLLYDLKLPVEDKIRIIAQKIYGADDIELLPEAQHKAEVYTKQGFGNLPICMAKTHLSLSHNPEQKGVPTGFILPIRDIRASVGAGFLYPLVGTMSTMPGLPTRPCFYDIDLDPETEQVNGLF
Description: Inhibition of recombinant MTHFD1 (unknown origin) using THF as substrate incubated for 30 mins in presence of NAD

[2] = target: T2, Bifunctional methylenetetrahydrofolate dehydrogenase/cyclohydrolase, mitochondrial (Homo sapiens, UniProt P13995); experiment: Inhibition of recombinant MTHFD2 (unknown origin) using THF as substrate incubated for 30 mins in presence of NAD
T2 sequence (P13995 whole entry): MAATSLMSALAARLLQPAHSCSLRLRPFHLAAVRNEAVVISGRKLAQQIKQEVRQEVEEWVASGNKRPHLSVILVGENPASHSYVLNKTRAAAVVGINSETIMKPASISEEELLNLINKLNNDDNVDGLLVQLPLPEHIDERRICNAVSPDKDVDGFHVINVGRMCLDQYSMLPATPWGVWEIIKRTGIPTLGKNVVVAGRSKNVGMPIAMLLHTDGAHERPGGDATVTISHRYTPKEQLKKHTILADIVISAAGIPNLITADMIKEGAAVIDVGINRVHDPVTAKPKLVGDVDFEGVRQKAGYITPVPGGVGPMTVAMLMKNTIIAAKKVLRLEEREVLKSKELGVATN

[3] = Antiproliferative activity against human MDA-MB-231-luc-D3H2LN cells assessed as inhibition of growth after 3 days by CellTiter Glo assay; type: functional; conditions: 72 h
[4] = Lipophilicity, logP of compound; type: physicochemical; conditions: octanol/water
[5] = Effective permeability of compound at pH 7.4 by PAMPA; type: ADME; conditions: read-out: Peff
[6] = Dissociation constant, acidic pKa of compound; type: physicochemical
[7] = Toxicity in BALB/cAJcl nu/nu mouse xenografted with human MDA-MB-231-Luc cells assessed as body weight loss at 30 to 300 mg/kg, po administered bid for 11 days and measured every 1 to 2 days; type: organism-based; conditions: in vivo
[8] = AUC in BALBc mouse at 30 mg/kg, po measured for 24 hrs by LC-MS/MS analysis; type: ADME, organism-based; conditions: in vivo
[9] = Half life in BALBc mouse at 300 mg/kg, po measured for 24 hrs by LC-MS/MS analysis; type: ADME, organism-based; conditions: in vivo
[10] = Solubility of compound in pH 1.2; type: physicochemical; conditions: buffer
[11] = AUC in BALBc mouse at 100 mg/kg, po measured for 24 hrs by LC-MS/MS analysis; type: ADME, organism-based; conditions: in vivo
[12] = AUC in BALBc mouse at 300 mg/kg, po measured for 24 hrs by LC-MS/MS analysis; type: ADME, organism-based; conditions: in vivo
[13] = Lipophilicity, logD of compound; type: physicochemical; conditions: octanol/water
[14] = AUC in BALBc mouse at 10 mg/kg, po measured for 24 hrs by LC-MS/MS analysis; type: ADME, organism-based; conditions: in vivo
[15] = Cmax in BALBc mouse at 300 mg/kg, po measured for 24 hrs by LC-MS/MS analysis; type: ADME, organism-based; set-up: dose 300 mg/kg, route oral; conditions: in vivo
[16] = Fraction unbound in mouse plasma; type: ADME, cell-free
[17] = Free plasma concentration in BALBc mouse at 10 to 300 mg/kg, po measured after 24 hrs by LC-MS/MS analysis; type: ADME, organism-based; conditions: in vivo
[18] = Half life in BALBc mouse at 10 mg/kg, po measured for 24 hrs by LC-MS/MS analysis; type: ADME, organism-based; conditions: in vivo
[19] = Half life in BALBc mouse at 100 mg/kg, po measured for 24 hrs by LC-MS/MS analysis; type: ADME, organism-based; conditions: in vivo
[20] = Effective permeability of compound at pH 5 by PAMPA; type: ADME; conditions: read-out: Peff
[21] = organism: Homo sapiens
Description: Antitumor activity against human MDA-MB-231-Luc cells xenografted in orally dosed BALB/cAJcl nu/nu mouse assessed as tumour growth inhibition administered bid for 11 days and measured every 2 to 3 days relative to control

[22] = Cmax in BALBc mouse at 30 mg/kg, po measured for 24 hrs by LC-MS/MS analysis; type: ADME, organism-based; set-up: dose 30 mg/kg, route oral; conditions: in vivo
[23] = Cmax in BALBc mouse at 100 mg/kg, po measured for 24 hrs by LC-MS/MS analysis; type: ADME, organism-based; set-up: dose 100 mg/kg, route oral; conditions: in vivo
[24] = Solubility of compound in pH 6.8; type: physicochemical; conditions: buffer
[25] = Half life in BALBc mouse at 30 mg/kg, po measured for 24 hrs by LC-MS/MS analysis; type: ADME, organism-based; conditions: in vivo
[26] = Cmax in BALBc mouse at 10 mg/kg, po measured for 24 hrs by LC-MS/MS analysis; type: ADME, organism-based; set-up: dose 10 mg/kg, route oral; conditions: in vivo
[27] = Metabolic stability in mouse liver microsomes assessed as remaining parent compound at 1 uM after 0.5 hrs; type: ADME, Microsome; conditions: read-out: Stability
[28] = Antitumor activity against human MDA-MB-231-Luc cells xenografted in BALB/cAJcl nu/nu mouse assessed as tumour growth inhibition at 300 mg/kg, po administered bid for 11 days and measured every 2 to 3 days relative to control; type: functional; conditions: read-out: TGI
[29] = Toxicity in BALB/cAJcl nu/nu mouse xenografted with human MDA-MB-231-Luc cells assessed as body weight loss at 300 mg/kg, po administered bid for 11 days and measured every 1 to 2 days; type: organism-based; conditions: in vivo

SMILES: Cc1cc2c3c(c(=O)oc2cc1OCCN(C)C)CN(C(=O)c1ccc(C(=O)O)cc1)CC3
IC50 [1]: > 30000 nM | IC50 [2]: > 30000 nM

SMILES: CN(C)c1ccc(-c2ccc3c4c(c(=O)oc3c2)CN(C(=O)c2ccc(C(=O)O)cc2)CC4)cc1
IC50 [1]: 5400 nM | IC50 [2]: 3800 nM

SMILES: CN(C)CCOc1ccc2c3c(c(=O)oc2c1)CN(C(=O)c1ccc(C(=O)O)cc1)CC3
IC50 [1]: > 30000 nM | IC50 [2]: 340 nM

SMILES: CN(C)Cc1ccc(-c2ccc3c4c(c(=O)oc3c2)CN(C(=O)c2ccc(C(=O)O)cc2)CC4)cc1
IC50 [1]: 23000 nM | IC50 [2]: 340 nM

SMILES: Cc1c(OCCN(C)C)ccc2c3c(c(=O)oc12)CN(C(=O)c1ccc2c(c1)CS(=O)(=O)N2)CC3
IC50 [1]: 8400 nM | IC50 [2]: 53 nM

Further lines, with some results ahead:

logP [4]: 2 | IC50 [2]: 130 nM
SMILES: Cc1c(N2CCN(C)[C@H](C)C2)ccc2c3c(c(=O)oc12)CN(C(=O)c1ccc(NS(C)(=O)=O)c(Cl)c1)CC3
GI50 [3]: 1700 nM

logP [4]: 1.9 | Papp [5]: 43.7 ×10⁻⁶ cm/s | pKa [6]: 6.8
SMILES: Cc1c(N2CCN(C)CC2)ccc2c3c(c(=O)oc12)CN(C(=O)c1ccc(NS(C)(=O)=O)c(OC(F)(F)F)c1)CC3
GI50 [3]: 380 nM

logP [4]: 2.1 | AUC at 24 h [8]: 264 µg·h/mL | half-life [9]: 4 h | solubility [10]: 1100 µg/mL (≈ 1810 µM) | AUC at 24 h [11]: 726 µg·h/mL | AUC at 24 h [12]: 1630 µg·h/mL | Papp [5]: > 50 ×10⁻⁶ cm/s | logD [13]: 1.9 | AUC at 24 h [14]: 64.4 µg·h/mL | Cmax [15]: 143000 ng/mL | fraction unbound [16]: 0.031 | Cp(f) [17]: 0 ng/mL | half-life [18]: 2.21 h | half-life [19]: 2.32 h | Papp [20]: 17.2 ×10⁻⁶ cm/s | Cmax [22]: 56500 ng/mL | Cmax [23]: 90100 ng/mL | solubility [24]: 630 µg/mL (≈ 1040 µM) | half-life [25]: 2.16 h | Cmax [26]: 11400 ng/mL | remaining at 0.5 h, 1 µM [27]: 66%
SMILES: Cc1c(N2CCN(C)[C@@H](C)C2)ccc2c3c(c(=O)oc12)CN(C(=O)c1ccc(NS(C)(=O)=O)c(OC(F)(F)F)c1)CC3
Activity [7]: Non-Toxic | GI50 [3]: 340 nM | TGI [21]: Dose-dependent effect | inhibition in vivo at 300 mg/kg [28]: 67%

logP [4]: 1.8 | AUC at 24 h [8]: 79.2 µg·h/mL | half-life [9]: 2.32 h | solubility [10]: 240 µg/mL (≈ 440 µM) | AUC at 24 h [11]: 306 µg·h/mL | AUC at 24 h [12]: 929 µg·h/mL | Papp [5]: 31.1 ×10⁻⁶ cm/s | logD [13]: 1.3 | AUC at 24 h [14]: 25.3 µg·h/mL | Cmax [15]: 82600 ng/mL | fraction unbound [16]: 0.153 | Cp(f) [17]: 0 ng/mL | half-life [18]: 2.73 h | half-life [19]: 3.51 h | Papp [20]: 7.2 ×10⁻⁶ cm/s | Cmax [22]: 12700 ng/mL | Cmax [23]: 37900 ng/mL | solubility [24]: 120 µg/mL (≈ 220 µM) | half-life [25]: 3.35 h | pKa [6]: 6.8 | Cmax [26]: 3660 ng/mL | remaining at 0.5 h, 1 µM [27]: 91%
SMILES: Cc1c(N2CCN(C)CC2)ccc2c3c(c(=O)oc12)CN(C(=O)c1ccc(NS(C)(=O)=O)c(Cl)c1)CC3
GI50 [3]: 940 nM | Activity [29]: Non-Toxic | inhibition in vivo at 300 mg/kg [28]: 43%

logP [4]: 1.6 | Papp [5]: < 0.1 ×10⁻⁶ cm/s | IC50 [1]: 5200 nM | IC50 [2]: 18 nM | pKa [6]: 5.7
SMILES: Cc1c(N2CCN(C)CC2)ccc2c3c(c(=O)oc12)CN(C(=O)c1ccc2c(c1)CS(=O)(=O)N2)CC3.O=C(O)C(F)(F)F
GI50 [3]: 19000 nM

logP [4]: 1.8 | Papp [5]: 23.1 ×10⁻⁶ cm/s | IC50 [1]: > 30000 nM | IC50 [2]: 530 nM | pKa [6]: 8.3
SMILES: Cc1cc(C(=O)N2CCc3c(c(=O)oc4c(C)c(N5CCN(C)CC5)ccc34)C2)ccc1NS(C)(=O)=O
GI50 [3]: 7700 nM
